Source: patent US20210340526A1, “NOVEL METHOD FOR TRANSDUCING PROTEIN-PROTEIN INTERACTIONS” (ETH ZÜRICH, priority 2018, published 2021)
One block for each molecule: values may come before it.

Legend:
CMV promoter = assay: iRFP expression from constitutive promoter under stimulation, HEK cells; type: cell-based; settings: 1 μM of procaterol or 2 μM of epinephrine versus DMEM without ligand
Method: (§1) (a) iRFP fluorescence of HEK cells transfected with the plasmid expressing iRFP from the CMV promoter (white bar) or from the EF1α promoter (black bars). The reporter expression in DMEM without any ligand or in the presence of 1 μM of procaterol or 2 μM of epinephrine is shown as indicated. The bar charts display iRFP level normalized to the frequency of the transfection marker Citrine-positive cells (rel. u.) as mean±SD of independent biological triplicates. (b) Activity of the NarX/NarL expressed from CMV or EF1a promoters. Every transfection contains NarL-regulated mCerulean fluorescent protein reporter and plasmids expressing NarL and NarX from CMV, EF1α or EF1α-V1 promoters, as indicated in the chart.
(§2) For any synthetic signalling system, it is important to avoid non-specific changes to the signalling readout. In the system of the invention, the components are expressed from constitutive promoters. However, these promoters are in fact controlled by highly-expressed transcription factors such as Sp1, and there is always a risk that these factors are directly affected by external stimuli via unrelated endogenous pathways. This would result in the change of constitutive expression, and apparent change in the signalling readout that is unrelated to the studied effect and is artefactual. To eliminate these confounding factors, the inventors examined a number of constitutive promoters for their robustness under various stimulation conditions and compared the expression of iRFP from the CMV and EF1α promoters in the presence of different compounds often used to induce cell signalling (Epinephrine and procaterol).

EF1α promoter = assay: as above; type: cell-based; settings: 1 μM of procaterol or 2 μM of epinephrine versus DMEM without ligand
Method: as §1, §2

[1] = target: ADRB2^1to341::AVPR2^343to371::NarX^379to598 H399Q (UniProt P07550); assay: cell-based or functional assay
GPCR ADRB2-AVPR2 = target: T1, GPCR ADRB2-AVPR2 (Homo sapiens, UniProt P07550, E27Q/G16R); assay: two-component (NarX/NarL) reporter assay of GPCR/beta-arrestin interaction, pair ADRB2-AVPR2::H^mut and beta-arrestin::N^mut, in HEK293 cells; type: cell-based
T1 construct: expressed in transfected cells; host or cells: HEK293

NarX/NarL system = assay: control: effect of ligand on NarX/NarL signalling in HEK cells; type: cell-based; settings: 100 nM; HEK cells with NarX or NarX^379to598, NarL and NarL-activated reporter
Method: To find out if NarX domains are capable of transducing this interaction (FIG. 3a), the complementing histidine and asparagine NarX mutants described above were fused at their N-terminus to the FKBP (FK) and the FRB^T2098L (FR) proteins, respectively, resulting in the fusions FK::NarX^379to598H399Q (FK::H^mut) and FR::NarX^379to598N509A (FR::N^mut), and the inverse pair FR::H^mut and FK::N^mut. […]
The cells were prepared for FACS analysis 48 h after transfection by removing the medium and incubating the cells with 200 μl StemPro™ Accutase™ Cell Dissociation Reagent (Gibco, cat #A11105-01) at 37° C. for 5 minutes. […] The prepared samples were measured using a BD LSR Fortessa II Cell Analyzer with a combination of excitation and emission that minimizes the crosstalk between different fluorescent reporters. Cerulean was measured with a 445 nm laser and a 473/10 nm emission filter, mCherry with a 561 nm excitation laser coupled to a 600 nm longpass filter and 610/20 emission filter. The Cerulean and the mCherry were measured, respectively, at PMT voltage of 330 and 310 in all the experiments. […]

FKBP and FRB^T2098L = FKBP and FRB^T2098L (Homo sapiens, UniProt P42345+P62942, T2098L); assay: two-component (NarX/NarL) reporter assay of ligand-induced FKBP/FRB heterodimerization in HEK293 cells; type: cell-based; settings: pair FR::H^mut and FK::N^mut, NarL and NarL-activated mCerulean reporter, HEK293, Hill function fit of dose-response; read-out: EC50 in the context of the assay
Source text: To enable bona fide signalling, the dimerization of the NarX domains should be preferably controlled by an external stimulus. Inducible protein-protein interaction is a common signalling mechanism both in the cytoplasm and across the membrane. A well characterized ligand-induced heterodimerization takes place between the proteins FK506-binding protein 12 (FKBP) and FKBP12-rapamycin binding domain (FRB) mutant FRB^T2098L in the presence of the small molecule A/C heterodimerize (a rapamycin analog Cl 6-(S)-7-methylindolerapamycin, known also as AP21967).
To find out if NarX domains are capable of transducing this interaction (FIG. 3a), the complementing histidine and asparagine NarX mutants described above were fused at their N-terminus to the FKBP (FK) and the FRB^T2098L (FR) proteins, respectively, resulting in the fusions FK::NarX^379to598H399Q (FK::H^mut) and FR::NarX^379to598N509A (FR::N^mut), and the inverse pair FR::H^mut and FK::N^mut. […] Next, the inventors probed the ligand-induced signalling in a fashion similar to the one used for SynZip1-SynZip2 experiments, expressing different fusion variants and control constructs in HEK293 cells, in the presence of the response regulator NarL and NarL-activated reporter construct, this time with and without the ligand (FIG. 3b, FIG. 8). As expected, full length wild type NarX was constitutively active. […]

Chain of FKBP and FRB^T2098L (P62942 whole entry, the tested form may be a part): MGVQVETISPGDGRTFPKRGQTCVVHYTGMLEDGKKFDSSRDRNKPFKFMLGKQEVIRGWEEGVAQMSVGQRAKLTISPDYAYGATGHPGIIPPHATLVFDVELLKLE
Chain of FKBP and FRB^T2098L (P42345 2012-2144 T2098L limits assumed): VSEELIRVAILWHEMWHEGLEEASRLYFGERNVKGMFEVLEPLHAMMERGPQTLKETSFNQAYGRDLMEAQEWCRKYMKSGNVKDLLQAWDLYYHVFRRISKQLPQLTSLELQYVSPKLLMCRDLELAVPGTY

Molecule: CNC[C@H](O)c1ccc(O)c(O)c1 [epinephrine]
activity of the CMV promoter (iRFP expression) (CMV promoter): induced by a factor of two
activity of the EF1α promoter (iRFP expression) (EF1α promoter): not affected

EC50 of the small-molecule agonist isoproterenol for reporter induction [1]: 30 nM
EC50 of the small-molecule agonist procaterol for reporter induction [1]: 5 nM
EC50 of the small-molecule partial agonist clenbuterol for reporter induction [1]: 14 nM
IC50 of the small-molecule antagonist propranolol in the presence of procaterol (reporter) [1]: 2 nM
reporter expression with the partial agonist clenbuterol against the full agonists [1]: 3.5 times lower
Molecule: ARRB2::NarX^379to598 N509A (from UniProt P32121 1-409)

EC50 (GPCR ADRB2-AVPR2; ADRB2-AVPR2::H^mut and beta-arrestin::N^mut, NarL-regulated mCerulean reporter, HEK293, read-out: EC50 from the dose-response curves): 5 nM
induction dynamic range of procaterol-triggered signalling (GPCR ADRB2-AVPR2; complementary NarX mutants fused to the GPCR receptor and beta-arrestin, with versus without procaterol): above 3 orders of magnitude
maximum response of downstream gene expression (GPCR ADRB2-AVPR2; saturating doses, full agonists): reach the same maximum response
Molecule: CCC(NC(C)C)C(O)c1ccc(O)c2[nH]c(=O)ccc12 (stereo not drawn) [procaterol]
effect on signalling via the wild-type NarX/NarL system (NarX/NarL system): did not affect
activity of the CMV promoter (iRFP expression) (CMV promoter): induced by a factor of two
activity of the EF1α promoter (iRFP expression) (EF1α promoter): not affected

EC50 (FKBP and FRB^T2098L): 1.3 nM
Molecule: Cl 6-(S)-7-methylindolerapamycin [A/C]
effect on signalling via the wild-type NarX/NarL system (NarX/NarL system): did not affect
